The values that follow are results of earlier work, collected in patent US20080004440A1, “SCAR TREATMENT USING PROTEIN PHOSPHATASE INHIBITORS” (priority 2006, published 2008).

In general, pIC50 refers to the IC50 on a negative log10 scale, so that one unit is a factor of ten. One may read the pKi as −log10 of the Ki, conventionally taken in molar units.

pIC50, pKi: −log10 of the molar value. Where a name gives a salt, the structure may show the parent alone. Read-outs that look alike come from different tables or passages of the source. *1 amine or outer side, *2 acyl side, *3 side chain or, on linkers, in order; H or OH if unused. Where a SMILES comes first, the peptide text is derived from it. Bridges are numbered along the chain shown (N, C = ends). [ ]: non-standard residue; d: D form. Adda = CO[C@@H](Cc1ccccc1)[C@@H](C)/C=C(C)/C=C/[C@H](N[*:1])[C@H](C)C(=O)[*:2]; dAsp(3S-Me) = C[C@H](C(=O)[*:3])[C@@H](N[*:1])C(=O)[*:2]; d(γGlu) = O=C(O)[C@@H](CCC(=O)[*:2])N[*:1]; NMeDha = C=C(NC)C(=O)O

The conditions of data set [1]: cited from earlier work.
In the next data set the test system is PP2A. The conditions noted are these: cited from earlier work.
A further data set relates to PP2A, PP1, PP2B. To be noted: cited from earlier work.
Another data set relates to PP1. The conditions noted are these: cited from earlier work.
For a further data set, the system named is PP2B. To be noted: cited from earlier work.

Regarding Microcystin-LW, in data set [1], the Cell permeability result was “A more cell-permeable analog of Microcystin-LR”.
Consider Microcystin-RR, for which the negative-log IC50 (pIC50) in the data set with PP2A was 8.85. Further, the “Order of inhibition / selectivity among protein phosphatases” value in the data set with PP2A, PP1, PP2B is reported as “Cyclic peptide. PP2A ˜ PP1 >> PP2B (IC50 = 1.4 nM”.
Take `O=P(O)(O)Oc1cccc2ccccc12` [α-Naphthyl acid Phosphate]: the “Order of inhibition / selectivity among protein phosphatases” value in the data set with PP2A, PP1, PP2B (in words) is listed as “Broad-spectrum protein phosphatase inhibitor”.
In the case of `C=C1C(=O)N[C@H](C)C(=O)N[C@@H](CC(C)C)C(=O)N[C@@H](C(=O)O)[C@H](C)C(=O)N[C@@H](CCCNC(=N)N)C(=O)N[C@@H](/C=C/C(C)=C/[C@H](C)[C@H](Cc2ccccc2)OC)[C@H](C)C(=O)N[C@@H](C(=O)O)CCC(=O)N1C` [Microcystin-LR] (R[Adda][d(γGlu)][NMeDha][dA]L[dAsp(3S-Me)]-OH; lactam N-7), the pIC50 is 10.40 with PP2A and 8.77 with PP1. Further, the “Order of inhibition / selectivity among protein phosphatases” value in the data set on PP2A, PP1, PP2B was “Cyclic peptide. PP2A ˜ PP1 >> PP2B (IC50 for PP2A = 40 pM”.
Turning to `C[C@@](O)(/C=C/[C@H]1CC=CC(=O)O1)[C@@H](C[C@@H](O)\C=C/C=C\C=C\CO)OP(=O)(O)O` [Fostriecin], the pIC50 with PP2A was 8.49; in the data set with PP1 (inhibits PP1 only at higher concentrations), 3.88.
Consider `C=C1[C@@H](O)[C@@H]2O[C@]3(CC[C@H](/C=C/[C@@H](C)[C@@H]4CC(C)=C[C@@]5(O[C@H](C[C@@](C)(O)C(=O)O)CC[C@H]5O)O4)O3)CC[C@H]2O[C@@H]1[C@@H](O)C[C@H](C)[C@H]1O[C@@]2(CCCCO2)CC[C@H]1C` [Okadaic acid, ammonium salt], for which the pIC50 in the data set on PP2A was 10.00; in the data set on PP1, 7.82 to 8.00; with PP2B it was 5.30.
In the case of `O=C(O)[C@@H]1[C@H](C(=O)O)[C@H]2CC[C@@H]1O2` [Endothall], in the data set with PP2A, the negative logarithm of the IC50 (pIC50) was 7.05. Also, the “Order of inhibition / selectivity among protein phosphatases” value in the data set with PP2A, PP1, PP2B (in words) was “specific inhibitor of PP2A”.
Regarding `COC[C@@H]([C@H](O)[C@H](O)C(=O)NCC[C@H](C)c1nc(/C=C/C[C@@H]2O[C@]3(C[C@@H](O)[C@@H]2C)O[C@H]([C@H](C[C@H](O)[C@H](C)[C@H](O)[C@H](C)/C=C(C)/C(C)=C/C=C/C(C)=C\C#N)OC)[C@H](OP(=O)(O)O)C3(C)C)co1)N(C)C` [Calyculin A], the values for the pIC50 in the data set on PP2A and with PP1 were 9.00 to 9.30 and 8.70, respectively. Besides, in the data set on PP2A, PP1, PP2B, the “Order of inhibition / selectivity among protein phosphatases” value is “Cell-permeable. Phosphorylated polyketide. PP2A ˜ PP1 >> PP2B”. In addition, the Cell permeability result in data set [1] (in words) was “Cell-permeable. Phosphorylated polyketide. PP2A ˜ PP1 >> PP2B”.
Consider “Protein phosphatase 2A inhibitor I1^PP2A: Protein phosphatase 2A inhibitor; potently inhibits all forms of PP2A”, for which the pKi on PP2A (all forms of PP2A) was about 10.00.
